Among the data in US7807828B2, “Olanzapine analogs and methods of use thereof” (Hypnion, Inc., priority 2005, dated 2010) are Ki values, retold here.

Assay [1] concerns the target T1, H1 (hr) (Homo sapiens, UniProt P35367).
T1 construct: Novascreen, MDS, Cerep (assay providers)
Put plainly: H1 (hr) Cerep binding assay. As to conditions: Table 7A; Ki in nM. The protocol: (§1) Binding assays were performed using various sleep-inducing agents and derivatives selected from those listed in Table 1 in competitive binding assays with known standards for the H1 histamine receptor, and the M1, M2, and M3 muscarinic receptors, alpha 1 and alpha 2 receptors, D1 and D2 receptors, 5HT2a, 5HT2b, 5HT2c, 5HT2c, and 5HT7 receptors.
(§2) The histamine H1 assays are described in Chang, et al., Heterogeneity of Histamine H1-Receptors: Species Variation in [^3H]Mepyramine Binding of Brain Membranes. Journal of Neurochemistry. 32: 1653-1663 (1979); Martinez-Mir, M. I., Pollard, H., Moreau, J., et al. Three Histamine Receptors (H1, H2, and H3) Visualized in the Brain of Human and Non-Human Primates. Brain Res. 526: 322-327 (1990); Haaksma, E. E. J., Leurs, R. and Timmerman, H. Histamine Receptors: Subclasses and Specific Ligands. Pharmac. Ther. 47: 73-104 (1990). The muscarinic assays are described in Buckley, N. J., Bonner, T. I., Buckley, C. M., and Brann, M. R. Antagonist Binding Properties of Five Cloned Muscarinic Receptors Expressed in CHO-K1 Cells. Mol. Pharmacol. 35: 469-476 (1989). The assays were performed according to the preceding articles, with the following modifications. Chemical reagents in the following were obtained from Sigma, St. Louis, Mo.

The target in a further assay is 5HT2a (h R) (Homo sapiens, UniProt P28223). In words: 5HT2a (h R) binding assay. As to conditions: Table 7B; unit inferred. On the procedure: as §1
(§3) In vitro binding assays are used to determine 5HT2a binding. These binding assays measure the ability of benzisoxazole analogs to displace known standards from the 5HT2a, 5HT2b, 5HT2c, and 5HT7. A decrease in the binding of the compounds to the M1-M3 receptors, relative to the binding of the compound to the 5HT2a receptor, is an indication of the greater specificity of the compound for the 5HT2a receptor over the muscarinic receptor. […] 5HT2a binding is determined as described for example in British Journal of Pharmacology (1995) 115, 622-628.

Another assay addresses T2, 5HT2a (hctx) (Homo sapiens, UniProt P28223).
T2 construct: (hctx); from tissue; host or cells: human cortex (my reading of 'hctx')
In words: 5HT2a (hctx) binding assay. The following applies: Table 7B; unit inferred.

Another assay concerns the target 5HT2a (rat) (Rattus norvegicus, UniProt P14842). Put plainly: 5HT2a (rat) binding assay. As to conditions: Table 7A; unit inferred.
The target of another assay is D2 (h) (Homo sapiens, UniProt P14416). In words: Dopamine D2 binding assay. As to conditions: Table 7A; unit inferred.
The next assay concerns the target 5HT7 (h) (Homo sapiens, UniProt P34969). Put plainly: 5HT7 (h) binding assay. As to conditions: Table 7B; unit inferred. The protocol:
as §1, §3

Assay [2] addresses T1, H1 (hr). Put plainly: H1 (hr) MDS binding assay. As to conditions: Table 7A; Ki in nM. On the procedure:
as §1, §2

The target of assay [3] is T1, H1 (hr). Put plainly: H1 (hr) Novascreen binding assay. As to conditions: Table 7A; Ki in nM. The protocol:
as §1, §2

In assay [4] the target is T3, human recombinant M1 expressed in CHO cells (Homo sapiens, UniProt P11229).
T3 construct: purchased PerkinElmer, Inc., Wellesley, Mass; host or cells: CHO cells
T3 sequence (P11229 1-460): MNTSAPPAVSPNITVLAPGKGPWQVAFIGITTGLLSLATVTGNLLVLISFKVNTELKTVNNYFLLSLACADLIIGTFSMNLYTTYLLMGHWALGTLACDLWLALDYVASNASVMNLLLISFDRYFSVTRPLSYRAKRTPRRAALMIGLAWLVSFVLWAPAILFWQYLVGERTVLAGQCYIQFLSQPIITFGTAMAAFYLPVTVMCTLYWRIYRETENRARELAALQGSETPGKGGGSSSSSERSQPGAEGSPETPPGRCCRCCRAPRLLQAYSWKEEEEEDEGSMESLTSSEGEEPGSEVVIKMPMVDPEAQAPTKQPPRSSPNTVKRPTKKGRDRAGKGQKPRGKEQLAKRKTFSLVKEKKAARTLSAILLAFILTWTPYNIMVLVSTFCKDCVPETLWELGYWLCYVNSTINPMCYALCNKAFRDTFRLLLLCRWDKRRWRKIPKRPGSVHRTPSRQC
In words: M1 muscarinic receptor binding assay. The following applies: Table 7A, first line of column M1 M2 M3.

A further assay concerns the target 5HT2b (h) (Homo sapiens, UniProt P41595). Put plainly: 5HT2b (h) binding assay. As to conditions: Table 7B; unit inferred.
In a further assay the target is T4, Alpha 1B (h) (Homo sapiens, UniProt P35368).
T4 sequence (P35368 1-520): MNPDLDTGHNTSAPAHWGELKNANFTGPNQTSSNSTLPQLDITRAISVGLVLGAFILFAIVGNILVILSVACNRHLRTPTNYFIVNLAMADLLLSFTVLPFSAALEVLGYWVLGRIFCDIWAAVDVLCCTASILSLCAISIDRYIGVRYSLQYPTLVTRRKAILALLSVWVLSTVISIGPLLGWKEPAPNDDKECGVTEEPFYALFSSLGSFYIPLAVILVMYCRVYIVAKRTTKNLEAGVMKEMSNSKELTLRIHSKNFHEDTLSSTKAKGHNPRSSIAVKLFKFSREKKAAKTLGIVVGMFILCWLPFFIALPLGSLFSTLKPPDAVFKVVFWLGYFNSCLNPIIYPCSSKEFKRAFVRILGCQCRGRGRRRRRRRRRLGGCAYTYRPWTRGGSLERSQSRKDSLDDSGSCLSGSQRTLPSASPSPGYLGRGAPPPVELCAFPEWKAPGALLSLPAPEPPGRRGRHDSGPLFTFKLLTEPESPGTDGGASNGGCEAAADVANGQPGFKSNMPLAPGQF
Put plainly: Alpha 1B (h) binding assay. The following applies: Table 7A; unit inferred. On the procedure: as §1

The next assay concerns the target D1 (h) (Homo sapiens, UniProt P21728). In words: Dopamine D1 (human recombinant) binding assay. The following applies: Table 7A; unit inferred. The protocol: Dopamine, D1 (human recombinant) binding assay was performed according to published procedures. See, e.g., Jarvie, et al. J. Recept Res., 13(1-4): 573-90 (1993); and Billard, et al. Life Sciences, 35(18): 1885-93 (1984), with modifications

For the next assay, the target named is D3 (Homo sapiens, UniProt P35462). In words: D3 binding. The following applies: Table 7A, printed in column D2 (h); unit inferred.
For a further assay, the target named is Alpha 1. In words: Alpha 1 binding assay. As to conditions: Table 7A; unit inferred. The protocol:
as §1

Where “and” joins values, the source holds several entries; their conditions need not be identical. Identical values can stand only once.

Chain of D1 (h) (P21728 whole entry): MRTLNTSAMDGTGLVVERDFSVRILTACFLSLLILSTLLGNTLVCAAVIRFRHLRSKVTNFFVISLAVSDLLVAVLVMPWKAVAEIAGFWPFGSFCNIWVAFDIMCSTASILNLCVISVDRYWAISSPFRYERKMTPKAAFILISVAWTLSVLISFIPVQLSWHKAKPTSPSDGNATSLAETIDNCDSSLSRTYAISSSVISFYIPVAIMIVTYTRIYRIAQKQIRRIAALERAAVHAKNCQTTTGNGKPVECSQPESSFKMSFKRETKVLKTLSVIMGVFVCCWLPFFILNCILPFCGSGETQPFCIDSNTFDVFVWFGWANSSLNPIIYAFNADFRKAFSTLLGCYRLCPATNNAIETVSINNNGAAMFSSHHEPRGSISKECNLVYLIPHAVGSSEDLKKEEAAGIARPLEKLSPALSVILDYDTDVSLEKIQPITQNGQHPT
Chain of D2 (h) (P14416 whole entry): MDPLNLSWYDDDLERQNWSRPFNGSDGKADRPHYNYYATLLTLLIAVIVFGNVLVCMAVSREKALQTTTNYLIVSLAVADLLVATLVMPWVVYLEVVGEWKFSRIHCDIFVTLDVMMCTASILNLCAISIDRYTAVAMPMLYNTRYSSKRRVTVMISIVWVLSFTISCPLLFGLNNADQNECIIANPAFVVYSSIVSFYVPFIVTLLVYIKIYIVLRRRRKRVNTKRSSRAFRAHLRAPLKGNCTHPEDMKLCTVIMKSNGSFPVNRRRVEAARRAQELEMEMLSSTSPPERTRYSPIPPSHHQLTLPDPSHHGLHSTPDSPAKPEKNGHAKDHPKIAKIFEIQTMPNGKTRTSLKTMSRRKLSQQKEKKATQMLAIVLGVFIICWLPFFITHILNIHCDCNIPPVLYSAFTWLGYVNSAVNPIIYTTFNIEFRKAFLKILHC
T1 sequence (P35367 whole entry): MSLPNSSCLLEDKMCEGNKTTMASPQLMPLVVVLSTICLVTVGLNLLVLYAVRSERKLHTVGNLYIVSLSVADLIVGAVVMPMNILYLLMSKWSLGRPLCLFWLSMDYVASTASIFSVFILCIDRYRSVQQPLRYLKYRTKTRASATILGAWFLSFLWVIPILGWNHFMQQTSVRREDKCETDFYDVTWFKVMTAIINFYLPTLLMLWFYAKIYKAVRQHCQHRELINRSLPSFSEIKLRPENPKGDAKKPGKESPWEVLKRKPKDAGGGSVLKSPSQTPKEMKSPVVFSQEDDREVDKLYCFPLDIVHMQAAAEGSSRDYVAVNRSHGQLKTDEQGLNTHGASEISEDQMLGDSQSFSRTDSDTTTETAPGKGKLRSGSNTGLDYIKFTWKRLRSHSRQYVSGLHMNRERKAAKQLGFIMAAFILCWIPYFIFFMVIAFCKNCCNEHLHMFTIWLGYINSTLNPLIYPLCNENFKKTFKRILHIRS
Chain of 5HT2a (rat) (P14842 whole entry): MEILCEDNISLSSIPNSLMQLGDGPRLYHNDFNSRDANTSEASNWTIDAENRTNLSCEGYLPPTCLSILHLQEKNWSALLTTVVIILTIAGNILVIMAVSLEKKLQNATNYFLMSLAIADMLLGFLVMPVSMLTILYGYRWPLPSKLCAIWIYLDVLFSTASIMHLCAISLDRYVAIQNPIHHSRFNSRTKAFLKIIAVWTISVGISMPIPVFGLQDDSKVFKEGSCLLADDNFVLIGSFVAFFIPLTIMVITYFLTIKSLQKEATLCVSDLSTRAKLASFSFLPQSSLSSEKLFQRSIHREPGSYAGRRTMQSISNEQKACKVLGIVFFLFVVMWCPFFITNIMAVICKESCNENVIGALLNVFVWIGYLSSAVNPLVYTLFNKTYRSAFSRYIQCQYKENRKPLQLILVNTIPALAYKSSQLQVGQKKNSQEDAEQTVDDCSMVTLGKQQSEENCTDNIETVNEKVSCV
T2 sequence (P28223 whole entry): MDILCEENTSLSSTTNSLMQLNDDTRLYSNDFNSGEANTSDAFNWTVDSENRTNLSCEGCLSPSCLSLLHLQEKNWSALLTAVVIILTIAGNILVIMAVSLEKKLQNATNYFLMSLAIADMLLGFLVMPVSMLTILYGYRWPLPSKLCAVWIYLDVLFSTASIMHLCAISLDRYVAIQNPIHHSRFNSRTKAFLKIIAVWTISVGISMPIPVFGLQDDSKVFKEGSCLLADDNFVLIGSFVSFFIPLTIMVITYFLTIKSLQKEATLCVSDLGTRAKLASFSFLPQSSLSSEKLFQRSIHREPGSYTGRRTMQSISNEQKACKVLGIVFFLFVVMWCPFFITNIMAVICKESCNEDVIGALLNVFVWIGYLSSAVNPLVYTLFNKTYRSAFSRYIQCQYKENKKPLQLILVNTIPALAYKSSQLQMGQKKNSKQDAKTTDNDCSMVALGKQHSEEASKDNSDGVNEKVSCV
Chain of 5HT2b (h) (P41595 whole entry): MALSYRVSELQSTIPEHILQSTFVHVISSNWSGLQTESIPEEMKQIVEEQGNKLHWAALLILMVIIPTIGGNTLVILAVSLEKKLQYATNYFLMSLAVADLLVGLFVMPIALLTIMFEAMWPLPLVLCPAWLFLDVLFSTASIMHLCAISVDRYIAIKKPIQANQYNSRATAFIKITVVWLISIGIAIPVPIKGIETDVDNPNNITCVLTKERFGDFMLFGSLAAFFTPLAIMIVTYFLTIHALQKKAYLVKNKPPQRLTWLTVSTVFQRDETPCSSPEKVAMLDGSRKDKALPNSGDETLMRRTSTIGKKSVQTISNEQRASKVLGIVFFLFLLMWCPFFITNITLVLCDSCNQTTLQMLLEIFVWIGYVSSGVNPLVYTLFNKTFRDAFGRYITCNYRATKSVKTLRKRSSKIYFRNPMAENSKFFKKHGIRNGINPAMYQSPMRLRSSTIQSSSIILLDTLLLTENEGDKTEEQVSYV
Chain of 5HT7 (h) (P34969 whole entry): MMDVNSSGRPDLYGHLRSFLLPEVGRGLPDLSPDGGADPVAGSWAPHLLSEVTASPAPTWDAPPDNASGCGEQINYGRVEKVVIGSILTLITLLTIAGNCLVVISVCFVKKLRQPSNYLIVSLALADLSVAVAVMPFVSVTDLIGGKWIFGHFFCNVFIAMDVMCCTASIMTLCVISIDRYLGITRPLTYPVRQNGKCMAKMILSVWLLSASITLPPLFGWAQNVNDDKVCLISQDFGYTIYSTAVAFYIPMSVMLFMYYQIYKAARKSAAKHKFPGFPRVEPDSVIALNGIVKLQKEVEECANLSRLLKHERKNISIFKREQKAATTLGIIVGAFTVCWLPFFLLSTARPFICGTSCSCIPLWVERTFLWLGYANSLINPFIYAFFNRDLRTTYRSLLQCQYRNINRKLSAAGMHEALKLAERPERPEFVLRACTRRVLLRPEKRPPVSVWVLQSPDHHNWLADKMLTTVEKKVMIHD
Chain of 5HT2a (h R) (P28223 whole entry): as the sequence (P28223 whole entry) above
Chain of D3 (P35462 whole entry): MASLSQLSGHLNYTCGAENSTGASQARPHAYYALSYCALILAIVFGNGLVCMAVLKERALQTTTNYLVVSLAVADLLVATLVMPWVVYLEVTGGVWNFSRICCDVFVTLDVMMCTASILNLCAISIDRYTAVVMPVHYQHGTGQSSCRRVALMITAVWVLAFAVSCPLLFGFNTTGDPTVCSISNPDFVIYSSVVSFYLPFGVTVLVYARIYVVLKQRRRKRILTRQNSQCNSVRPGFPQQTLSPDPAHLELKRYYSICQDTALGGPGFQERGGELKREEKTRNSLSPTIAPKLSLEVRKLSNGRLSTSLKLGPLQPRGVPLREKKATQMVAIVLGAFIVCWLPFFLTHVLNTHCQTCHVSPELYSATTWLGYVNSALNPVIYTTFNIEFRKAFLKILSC

What is called Ki is the equilibrium dissociation constant of an inhibitor or competing ligand from its target. As to `Cc1cc2c(s1)Nc1ccccc1N=C2N1CCN(CC(C)(C)C(=O)O)CC1` [Compound 46], the Ki on H1 (hr) [1] is 210 nM; at 5HT2a (h R), 200 nM; on 5HT2a (hctx) it was 639 nM; at 5HT2a (rat), 14.5 nM; at D2 (h), 1100 nM and 533 nM and 847 nM; on 5HT7 (h), 4.08 µM. Besides, the Ki on H1 (hr) [2] was 44 nM; at H1 (hr) [3], 30 nM and 44 nM; in [4], more than 10 µM; at 5HT2b (h), 151 nM and 270 nM; at Alpha 1B (h) it was 2100 nM; at D1 (h), 1550 nM.

In the case of `CCc1cc2c(s1)Nc1ccccc1N=C2N1CCN(CC(C)(C)C(=O)O)CC1` [Compound 90], the inhibition constant Ki at 5HT2a (hctx) was 314 nM; at 5HT2a (rat), 10.4 nM; at D2 (h), 196 nM; on H1 (hr) [3], 70 nM; in assay [4], more than 10 µM; on D1 (h), 565 nM. Moreover, the Ki on D3 worked out at 226 nM.

Consider `Cc1cc2c(s1)Nc1ccccc1N=C2N1CCN(CC2(C(=O)O)CC2)CC1` [Compound 91], for which the Ki was 59.1 nM at 5HT2a (hctx); 13.3 nM at 5HT2a (rat); 202 nM on D2 (h); 1960 nM on Alpha 1; 60.6 nM on H1 (hr) [3]; more than 10 µM in assay [4]. In addition, the Ki on D1 (h) came out at 278 nM.

As for `Cc1cc2c(s1)Nc1ccccc1N=C2N1CCN(CCC(=O)O)CC1` [Compound 92], the Ki at 5HT2a (hctx) is 232 nM; on 5HT2a (rat), 60.7 nM; on D2 (h), 2480 nM; on Alpha 1 it was 2060 nM; on H1 (hr) [3], 119 nM; in [4], more than 10 µM. The Ki on D1 (h) came out at 129 nM.

For `CC(C)c1cc2c(s1)Nc1ccccc1N=C2N1CCN(CC(C)(C)C(=O)O)CC1` [Compound 94], the Ki at 5HT2a (hctx) was 73 nM; at 5HT2a (rat), 8.2 nM; on D2 (h) it was 107 nM; on H1 (hr) [3], 62 nM; in assay [4], more than 10 µM; on D1 (h), 300 nM.
